Test results as given in patent publication US20100267561A1, “HERBICIDAL PYRIDAZINONE DERIVATIVES” (priority 2007, published 2010).

Experiments:
Experiment in all cases: Test B pre-/postemergence plant response
Type in all cases: in vivo
[1] = system: blackgrass (Alopecurus myosuroides); details: for Blackgrass plant response rating: 8 g ai/ha
Procedure, shortened: (§1)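 Preemergence and postemergence (plants 2-18 cm, 1- to 4-leaf stage) applications used test chemicals in a non-phytotoxic solvent with surfactant. Plants were held in a greenhouse 13 to 15 days, then rated visually against controls on a 0-100 scale (0 no effect, 100 complete control).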

[2] = system: catchweed bedstraw (Galium aparine); details: Preemergence; 8 g ai/ha; scale 0 to 100
Procedure, shortened: as §1

kochia (Kochia scoparia) = system: kochia (Kochia scoparia)
Procedure, shortened: as §1

[3] = system: surinam grass (Brachiaria decumbens)
Procedure, shortened: as §1

[4] = system: eastern black (E.B.) nightshade (Solanum ptycanthum); details: Preemergence
Procedure, shortened: as §1

[5] = system: pigweed (Amaranthus retroflexus)
Procedure, shortened: as §1

[6] = system: morningglory (Ipomoea coccinea)
Procedure, shortened: as §1

[7] = system: common (oilseed) sunflower (Helianthus annuus); details: Preemergence
Procedure, shortened: as §1

[8] = system: green foxtail (Setaria viridis)
Procedure, shortened: as §1

[9] = system: johnsongrass (Sorghum halepense)
Procedure, shortened: as §1

[10] = system: woolly cupgrass (Eriochloa villosa)
Procedure, shortened: as §1

corn (Zea mays) = system: corn (Zea mays)
Procedure, shortened: as §1

[11] = system: giant foxtail (Setaria faberii)
Procedure, shortened: as §1

[12] = system: downy bromegrass (Bromus tectorum); details: for Bromegrass, Downy plant response rating: 8 g ai/ha
Procedure, shortened: as §1

[13] = Postemergence, 16 g ai/ha, scale 0 to 100
[14] = Postemergence, 31 g ai/ha, scale 0 to 100
[15] = Postemergence, 62 g ai/ha, scale 0 to 100, 0 no effect, 100 complete control
[16] = Preemergence, 16 g ai/ha, scale 0 to 100 (0 no effect, 100 complete control)
[17] = Preemergence, 31 g ai/ha, 0 to 100 scale, 0 no effect, 100 complete control
[18] = Preemergence, 62 g ai/ha, scale 0 to 100
[19] = 8 g ai/ha, postemergence, 0-100 scale
[20] = Preemergence, 31 g ai/ha, scale 0 to 100 (0 no effect, 100 complete control)
[21] = Preemergence, 8 g ai/ha, scale 0 to 100
[22] = Preemergence, 16 g ai/ha, scale 0 to 100
[23] = 31 g ai/ha, scale 0 to 100 (0 no effect, 100 complete control)

CCOC(=O)Oc1cnn(C)c(=O)c1-n1nc(-c2ccc(Cl)cc2)cc1C [Compound 53]
Blackgrass plant response rating ([1]; postemergence, 0-100 scale): 30 | Plant response rating, Blackgrass [1, 13]: 60 | Plant response rating, Blackgrass [1, 14]: 95 | Plant response rating, Blackgrass [1, 15]: 95 | Plant response rating, Blackgrass [1, 16]: 100 | Plant response rating, Blackgrass [1, 17]: 100 | Plant response rating, Blackgrass [1, 18]: 100 | Blackgrass plant response rating ([1]; Preemergence, scale 0 to 100): 95 | Galium plant response rating [2]: 0 | Kochia plant response rating (kochia (Kochia scoparia); [19]): 0 | Plant response rating, Kochia (kochia (Kochia scoparia); [13]): 0 | Plant response rating, Kochia (kochia (Kochia scoparia); [14]): 0 | Plant response rating, Kochia (kochia (Kochia scoparia); [15]): 0 | Plant response rating, Kochia (kochia (Kochia scoparia); [17]): 0 | Surinam Grass plant response rating [3, 19]: 75 | Plant response rating, Surinam Grass [3, 13]: 98 | Plant response rating, Surinam Grass [3, 14]: 100 | Plant response rating, Surinam Grass [3, 15]: 100 | Plant response rating, Surinam Grass [3, 20]: 60 | Plant response rating, Surinam Grass ([3]; Preemergence, 62 g ai/ha, 0 to 100 scale, 0 no effect, 100 complete control): 95 | Surinam Grass plant response rating [3, 21]: 0 | Surinam Grass plant response rating [3, 22]: 20 | Plant response rating, Nightshade, E. B. [4, 23]: 15 | Plant response rating, Nightshade, E. B. ([4]; 62 g ai/ha, scale 0 to 100): 20 | Nightshade, E. B. plant response rating ([4]; 8 g ai/ha, scale 0 to 100): 0 | Nightshade, E. B. plant response rating ([4]; 16 g ai/ha, scale 0 to 100): 0 | Pigweed plant response rating [5, 19]: 0 | Plant response rating, Pigweed [5, 13]: 0 | Plant response rating, Pigweed [5, 14]: 0 | Plant response rating, Pigweed [5, 15]: 0 | Plant response rating, Pigweed [5, 20]: 0 | Plant response rating, Pigweed [5, 18]: 0 | Pigweed plant response rating [5, 21]: 0 | Pigweed plant response rating [5, 22]: 0 | Morningglory plant response rating [6, 19]: 0 | Plant response rating, Morningglory [6, 13]: 0 | Plant response rating, Morningglory [6, 14]: 0 | Plant response rating, Morningglory [6, 15]: 0 | Plant response rating, Morningglory [6, 20]: 0 | Plant response rating, Morningglory [6, 18]: 0 | Morningglory plant response rating [6, 21]: 0 | Morningglory plant response rating [6, 22]: 0 | Plant response rating, Sunflower [7, 23]: 0 | Plant response rating, Sunflower ([7]; 62 g ai/ha, scale 0 to 100): 0 | Sunflower plant response rating ([7]; 8 g ai/ha, scale 0 to 100): 0 | Sunflower plant response rating ([7]; 16 g ai/ha, scale 0 to 100): 0 | Foxtail, Green plant response rating [8, 19]: 95 | Plant response rating, Foxtail, Green [8, 13]: 95 | Plant response rating, Foxtail, Green [8, 14]: 100 | Plant response rating, Foxtail, Green [8, 15]: 100 | Plant response rating, Foxtail, Green [8, 17]: 100 | Plant response rating, Foxtail, Green [8, 18]: 100 | Foxtail, Green plant response rating [8, 21]: 95 | Foxtail, Green plant response rating [8, 22]: 100 | Johnsongrass plant response rating [9, 19]: 35 | Plant response rating, Johnsongrass [9, 13]: 70 | Plant response rating, Johnsongrass [9, 14]: 98 | Plant response rating, Johnsongrass [9, 15]: 100 | Plant response rating, Johnsongrass [9, 17]: 75 | Plant response rating, Johnsongrass [9, 18]: 100 | Johnsongrass plant response rating [9, 21]: 45 | Johnsongrass plant response rating [9, 22]: 65 | Cupgrass, Woolly plant response rating [10, 19]: 85 | Plant response rating, Cupgrass, Woolly [10, 13]: 100 | Plant response rating, Cupgrass, Woolly [10, 14]: 100 | Plant response rating, Cupgrass, Woolly [10, 15]: 100 | Plant response rating, Cupgrass, Woolly [10, 17]: 0 | Plant response rating, Cupgrass, Woolly [10, 18]: 0 | Cupgrass, Woolly plant response rating [10, 21]: 0 | Cupgrass, Woolly plant response rating [10, 22]: 0 | Corn plant response rating (corn (Zea mays); [19]): 20 | Plant response rating, Corn (corn (Zea mays); [13]): 100 | Plant response rating, Corn (corn (Zea mays); [14]): 100 | Plant response rating, Corn (corn (Zea mays); [15]): 100 | Plant response rating, Corn (corn (Zea mays); [17]): 55 | Plant response rating, Corn (corn (Zea mays); [18]): 60 | Corn plant response rating (corn (Zea mays); [21]): 0 | Corn plant response rating (corn (Zea mays); [22]): 45 | Foxtail, Giant plant response rating [11, 19]: 85 | Plant response rating, Foxtail, Giant [11, 13]: 95 | Plant response rating, Foxtail, Giant [11, 14]: 100 | Plant response rating, Foxtail, Giant [11, 15]: 100 | Plant response rating, Foxtail, Giant [11, 17]: 45 | Plant response rating, Foxtail, Giant [11, 18]: 70 | Foxtail, Giant plant response rating [11, 21]: 0 | Foxtail, Giant plant response rating [11, 22]: 20 | Bromegrass, Downy plant response rating ([12]; postemergence, 0-100 scale): 10 | Plant response rating, Bromegrass, Downy [12, 13]: 45 | Plant response rating, Bromegrass, Downy [12, 14]: 60 | Plant response rating, Bromegrass, Downy [12, 15]: 90 | Plant response rating, Bromegrass, Downy [12, 16]: 50 | Plant response rating, Bromegrass, Downy [12, 17]: 70 | Plant response rating, Bromegrass, Downy [12, 18]: 90 | Bromegrass, Downy plant response rating ([12]; Preemergence, scale 0 to 100): 10
